Laboratory results as given in publication PMC3954451 (Journal of Medicinal Chemistry, 2014).

Tests used:
[1] = cited from earlier work
Caco-2 cells [2] = settings: cited from earlier work
Caco-2 cells [3] = settings: 10 μM, 2 h

| membrane permeability in the apical to basolateral (A→B) direction, in words (Caco-2 cells [3]) | Structure (SMILES) | other results |
| --- | --- | --- |
|  | Nc1ccccn1 [2-aminopyridine] | pKa [1]: 7.1 |
|  | Cl.Cl.N=C(Nc1cccc(CNCCc2cccc(F)c2)c1)c1cccs1 [Compound 3] | Caco-2 permeability, in words (Caco-2 cells [2]): poor |
| good | Cl.Cl.Nc1ccc2ccc(CCNCCc3cccc(F)c3)cc2n1 [Compound 7, 7-[(3-Fluorophenethylamino)ethyl]quinolin-2-amine Dihydrochloride] |  |
| good | Cl.Cl.Cl.Nc1ccc2ccc(CCNCCc3cccc(Cl)c3)cc2n1 [Compound 15, 7-[(3-Chlorophenethylamino)ethyl]quinolin-2-amine Dihydrochloride] |  |
